Source: patent publication US4788301A, “Novel allylic amines” (Merrell Dow Pharmaceuticals Inc., priority 1987, dated 1988)
“Also recorded” adds a separate entry of the source.

Legend:
[1] = biological target: T1, dopamine β-hydroxylase (DBH) (Bos taurus, UniProt P15101); assay: Dopamine β-hydroxylase (DBH) inhibitory activity in vitro, time-dependent inactivation (Table I); type: biochemical; conditions: for Ki: inhibition constant for inactivation of DBH; for Ki / kinact: tyramine substrate, pH 5, Kitz and Wilson; for kinact: rate of inactivation of DBH
T1 sequence (P15101 1-610): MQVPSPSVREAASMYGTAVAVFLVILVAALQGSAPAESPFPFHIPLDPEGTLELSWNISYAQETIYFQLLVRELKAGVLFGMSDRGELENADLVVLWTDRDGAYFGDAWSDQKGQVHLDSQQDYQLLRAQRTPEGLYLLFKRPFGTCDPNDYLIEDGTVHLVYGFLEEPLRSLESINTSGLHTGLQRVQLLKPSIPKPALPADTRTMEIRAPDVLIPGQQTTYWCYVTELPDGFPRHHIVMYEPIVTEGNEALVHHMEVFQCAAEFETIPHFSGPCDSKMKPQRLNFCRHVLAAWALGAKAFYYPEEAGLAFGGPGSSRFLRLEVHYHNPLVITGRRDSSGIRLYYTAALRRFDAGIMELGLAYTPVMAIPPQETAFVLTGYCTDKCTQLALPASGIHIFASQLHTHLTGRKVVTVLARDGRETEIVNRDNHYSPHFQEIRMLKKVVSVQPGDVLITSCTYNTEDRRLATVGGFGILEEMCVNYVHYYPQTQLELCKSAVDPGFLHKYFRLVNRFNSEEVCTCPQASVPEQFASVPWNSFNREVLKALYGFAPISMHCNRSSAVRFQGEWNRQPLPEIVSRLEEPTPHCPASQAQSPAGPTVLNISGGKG
Experimental: The dopamine β-hydroxylase inhibitory properties of the compounds of this invention can readily be determined by standard and well known procedures such as those procedures set forth in U.S. Pat. […] For example, determination of whether the DBH inhibition allows time-dependent kinetics is exemplified by the procedure wherein enzymatic oxygenation by DBH is determined in aqueous solution in the presence of molecular oxygen, an electron donor such as ascorbate, and the necessary cofactors for the enzyme at a pH of 5 and a temperature of 20°-40° C., preferably 37° C. The test compound is added at the desired concentration, and the system is incubated. At different time intervals, aliquots are taken and DBH activity is measured using tyramine as the substrate and the reaction followed by measuring the oxygen uptake using a polarographic electrode and an oxygen monitor by the method of S. May et al., J. Biol. Chem. 256, 2258 (1981). The inhibition constants for the inactivation of DBH by each compound are then determined by conventional procedures such as the method of Kitz and Wilson, J. Biol. Chem. 237, 3245 (1962). When the compounds shown in Table I were tested according to the above described procedure, the DBH inhibitory activity increased as a function of the time of incubation. The initial rate of decrease of activity increased with increasing concentration of inhibitor.

hypertensive rats = assay: Antihypertensive activity in vivo in hypertensive rats (Table II); design: species or system rat
Experimental: The ability of the compounds of this invention to lower blood pressure can be determined in vivo using hypertensive rats according to standard and well known procedures. The test compound is administered intraperitoneally (ip) or orally (po) to rats and the blood pressure monitored continuously. Since DBH is a major enzyme in the synthetic pathway of the catecholamines, it would be expected that the presence of an inhibitor would act to decrease the amount of catecholamines produced, and thereby have an antihypertensive effect.

purified DBH = assay: Time-dependant inhibition of purified DBH (Table III); type: biochemical
Experimental: The dopamine β-hydroxylase inhibitory properties of the compounds of this invention can readily be determined by standard and well known procedures such as those procedures set forth in U.S. Pat. No. 4,415,191. For example, determination of whether the DBH inhibition allows time-dependent kinetics is exemplified by the procedure wherein enzymatic oxygenation by DBH is determined in aqueous solution in the presence of molecular oxygen, an electron donor such as ascorbate, and the necessary cofactors for the enzyme at a pH of 5 and a temperature of 20°-40° C., preferably 37° C. The test compound is added at the desired concentration, and the system is incubated. At different time intervals, aliquots are taken and DBH activity is measured using tyramine as the substrate and the reaction followed by measuring the oxygen uptake using a polarographic electrode and an oxygen monitor by the method of S. May et al., J. Biol. Chem. 256, 2258 (1981). The inhibition constants for the inactivation of DBH by each compound are then determined by conventional procedures such as the method of Kitz and Wilson, J. Biol. Chem. 237, 3245 (1962). When the compounds shown in Table I were tested according to the above described procedure, the DBH inhibitory activity increased as a function of the time of incubation. […]

[2] = system: Rat Brain - Mitochondrial MAO; assay: Time-dependant inhibition of rat brain mitochondrial MAO (Table III); type: biochemical
Experimental: (§1) The compounds of this invention were conceived as mechanism-based inhibitors of DBH similar to that reported by S. May, J. Biol. Chem. 256, 2258 (1981). These compounds bear some resemblance to the catecholamines which are destroyed by the enzyme monoamine oxidase (MAO) in order to terminate neurotransmission. Because of their structural similarity to the catecholamines they may act as MAO substrates and, as such, act as k cat inhibitors of MAO. These compounds were evaluated as mechanism-based inhibitors of monooxygenasess by the method of A. Christmas et. al., Br. J. Pharmacol. 45, 490 (1972).

MAO A = biological target: T2, MAO A (Rattus norvegicus, UniProt P21396); assay: Inhibition of rat brain mitochondrial MAO A (Table III); type: biochemical
T2 construct: from tissue; host or cells: rat brain mitochondria
T2 sequence (P21396 1-526): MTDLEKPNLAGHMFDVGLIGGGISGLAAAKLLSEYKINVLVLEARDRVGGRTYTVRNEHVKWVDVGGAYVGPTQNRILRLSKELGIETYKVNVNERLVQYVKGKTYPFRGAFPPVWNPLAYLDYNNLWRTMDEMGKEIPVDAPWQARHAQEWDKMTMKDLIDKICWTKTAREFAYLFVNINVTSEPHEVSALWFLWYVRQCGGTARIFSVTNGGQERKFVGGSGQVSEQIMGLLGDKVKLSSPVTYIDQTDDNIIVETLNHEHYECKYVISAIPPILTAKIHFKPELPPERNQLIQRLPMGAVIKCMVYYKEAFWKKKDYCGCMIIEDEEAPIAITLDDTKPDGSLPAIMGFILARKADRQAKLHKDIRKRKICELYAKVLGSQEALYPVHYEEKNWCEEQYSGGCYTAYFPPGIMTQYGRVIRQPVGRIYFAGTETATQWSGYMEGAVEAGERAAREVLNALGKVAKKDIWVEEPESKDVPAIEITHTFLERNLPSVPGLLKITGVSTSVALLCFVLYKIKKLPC
Experimental: as §1

MAO B = biological target: T3, MAO B (Rattus norvegicus, UniProt P19643); assay: Inhibition of rat brain mitochondrial MAO B (Table III); type: biochemical
T3 construct: from tissue; host or cells: rat brain mitochondria
T3 sequence (P19643 1-520): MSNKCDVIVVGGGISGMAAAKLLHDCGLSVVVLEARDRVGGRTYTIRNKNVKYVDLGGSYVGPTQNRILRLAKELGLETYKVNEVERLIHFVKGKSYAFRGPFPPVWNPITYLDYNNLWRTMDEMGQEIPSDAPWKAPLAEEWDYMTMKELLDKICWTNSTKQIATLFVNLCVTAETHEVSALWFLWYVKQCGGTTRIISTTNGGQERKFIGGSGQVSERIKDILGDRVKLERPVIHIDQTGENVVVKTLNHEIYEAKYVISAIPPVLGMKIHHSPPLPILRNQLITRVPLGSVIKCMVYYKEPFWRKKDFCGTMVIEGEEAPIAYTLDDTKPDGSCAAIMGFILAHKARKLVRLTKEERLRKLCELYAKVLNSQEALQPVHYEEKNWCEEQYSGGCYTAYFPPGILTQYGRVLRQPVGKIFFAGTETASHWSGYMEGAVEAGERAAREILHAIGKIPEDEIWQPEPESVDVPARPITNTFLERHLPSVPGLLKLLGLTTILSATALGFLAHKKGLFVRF
Experimental: as §1

| Relative DBH inhibitory potency of the isomers ([1]; 2- vs. 3-thiophene isomer, Table I) | Ki [1] | kinact [1] | Ki (MAO A) | MAO A Tau50 (MAO A) | Ki (MAO B) | MAO B Tau50 (MAO B) | SMILES | Maximum % Change Mean Blood Pressure (hypertensive rats; 10 mg/kg ip) | Maximum % Change Mean Blood Pressure (hypertensive rats; 30 mg/kg ip) | Maximum % Change Mean Blood Pressure (hypertensive rats; 50 mg/kg po) | Maximum % Change Mean Blood Pressure (hypertensive rats; 100 mg/kg ip) | Maximum % Change Mean Blood Pressure (hypertensive rats; 100 mg/kg po) | Maximum % Change Mean Blood Pressure (hypertensive rats; 200 mg/kg po) | Time-dependant inhibition t1/2 (purified DBH; 5.10^-5 M final concentration, purified DBH) | DBH inhibitory activity (in words) (purified DBH; compared with MAO inhibition) | MAO inhibition (in words) [2] |
| --- | --- | --- | --- | --- | --- | --- | --- | --- | --- | --- | --- | --- | --- | --- | --- | --- |
| the more potent isomer | 2000 µM | 0.000333 s⁻¹ | 320 µM | 2.6 min | 110 µM | 4.9 min | C=C(CN)c1cccs1 [β-Methylene-2-Thiopheneethanamine, β-methylene-2-thiopheneethanamine] | 11% | 22% | 11% | 52% | 14% | 14% | 7 min | potent DBH inhibitory activity | weak MAO inhibitory activity; also recorded: Weak time-dependant MAO inhibitor |
| – | 2000 µM | 6.67e-05 s⁻¹ | – | – | – | – | C=C(CN)c1ccsc1 [β-Methylene-3-Thiopheneethanamine, β-methylene-3-thiopheneethanamine] | – | – | – | – | – | – | – | – | – |
